Test results reported in patent US20050233942A1, “Oxygenated dibenzo-alpha-pyrone chromoproteins” (priority 2004, published 2005).
Values after ≈ are worked out from the molar mass of the structure shown.

Tests used:
[1] = test system: Fe-ADP-ascorbate induced lipid peroxidation (LPO) in rat brain; assay: Inhibition of Fe-ADP-ascorbate induced lipid peroxidation (LPO) in rat brain homogenate; format: biochemical, Albino rats (Sprague Dawley strain); conditions: 37° C., 30 minutes
Protocol: Inhibition of Fe-ADP-ascorbate induced lipid peroxidation (LPO) in rat brain by DBP and DCPs
Albino rats (Sprague Dawley strain) were sacrificed by cervical dislocation and decapitation. Brains were dissected out and 10% w/v homogenate was prepared in 0.15 M KCl. The brain homogenate was centrifuged at 1500 rpm for 10 minutes and the supernatant was used for the study. The incubation mixture contained in a final volume of 1 ml., brain homogenate (500 μl), distilled water (100 μl) or test compounds dissolved in solvents at different concentrations (10 to 100 μg/ml of the final volume). Peroxidation was initiated by adding FeCl3 (100 μM), ADP (1 mM) and ascorbate (100 μM) to give the final concentration stated. After incubating at 37° C. for 30 minutes, the reaction was stopped by adding acetic acid buffer (1.5 ml, pH 3.5) and thiobarbituric acid solution (1.5 ml, pH 7.4) to 1 ml of LPO mixture. The reaction mixture was heated at 85° C. for 30 minutes, cooled, centrifuged (2000 rpm for 10 minutes) and the absorbance of the supernatant was measured at 532 nm. IC50 values were calculated in the usual way by plotting the concentration of the test compounds versus percent inhibition of LPO.

[2] = test system: chronic stress (CS) induced gastric ulceration; assay: Chronic stress (CS) induced gastric ulceration in albino rats; format: in vivo, CF strain albino rats; conditions: 14 days
Protocol: A comparative study of shilajit bioactive constituents from EPA, DHA, DBPs and DCPs, was carried out to determine their adaptogenic potency against chronic stress (CS) in albino rats. It is now increasingly becoming evident that CS of a mild but unpredictable nature which the animal is unable to cope with (inescapable stress), is clinically more relevant than acute stress even when the latter is severe in nature. It is believed that chronic, unpredictable, and inescapable stress resembles the situation faced by an individual that ultimately results in chronic stress-induced physiological perturbation and disease. Animals The investigation was carried out on CF strain albino rats, of either sex (140-180 g), housed in colony cages at an ambient temperature of 25±2° C., with a 12 h. light/12 h. dark cycle. […] The procedure of Armario et al (1993) was followed. Briefly, rats were randomly assigned to control or stress groups. Those assigned to the stress groups were subjected to 1 h foot shock, through a grid floor, every day for 14 days. The duration of each shock (2 mA) and the intervals between the shocks were randomly programmed between 3-5 sec. and 10-110 sec., respectively, to make the stress unpredictable. The shock chamber had high walls which made escape from shock impossible. EPA (Aldrich, Milw.), DHA (Sigma), DBPs and DCPs were separately suspended/dissolved in 0.3% carboxymethylcellulose(CMC) in distilled water and administered orally (p.o.), for 14 days, starting on day 1, 60 min prior to electroshock. Control animals received only the vehicle in either unstressed or the stressed rats for the same period in a volume of 2.5 ml/kg, p.o. Estimations were conducted on day 14, one hour after the last stress procedure and two hours after the last test compound or vehicle was administered. Gastric ulcerations (Bhattacharya et al., 1987). On day 14, rats were killed by decapitation the stomach was split open along the greater curvature and the numbers of discrete ulcers were noted. […] Thereafter, the pooled ulcer score was calculated according to the method of Bhattacharya et al. (1987).

[3] = test system: adrenal gland ascorbic acid and corticosterone concentrations and plasma corticosterone level; assay: CS induced alteration of adrenal gland ascorbic acid and corticosterone and plasma corticosterone (adrenocorticoid activity); format: in vivo, CF strain albino rats; conditions: 5 mg/kg p.o. + CS
Protocol: Animals The investigation was carried out on CF strain albino rats, of either sex (140-180 g), housed in colony cages at an ambient temperature of 25±2° C., with a 12 h. light/12 h. dark cycle. Experiments were conducted between 0900 and 1400 hrs. • EPA, Eicosapentaenoic acid • DHA, Docosahexaenoic acid • DBPs, 1:1 mixture of 3-hydroxy- and 3,8-dihydroxydibenzo-alpha-pyrone • DCPs, DBP-chromoproteins
The procedure of Armario et al (1993) was followed. Briefly, rats were randomly assigned to control or stress groups. Those assigned to the stress groups were subjected to 1 h foot shock, through a grid floor, every day for 14 days. The duration of each shock (2 mA) and the intervals between the shocks were randomly programmed between 3-5 sec. and 10-110 sec., respectively, to make the stress unpredictable. The shock chamber had high walls which made escape from shock impossible.
EPA (Aldrich, Milw.), DHA (Sigma), DBPs and DCPs were separately suspended/dissolved in 0.3% carboxymethylcellulose(CMC) in distilled water and administered orally (p.o.), for 14 days, starting on day 1, 60 min prior to electroshock. […]
Adrenal gland ascorbic acid (Zenker and Bernstein, 1958) and corticosterone concentrations (Selye, 1936), and plasma corticosterone levels (Selye, 1936) were determined to substantiate the validity and intensity of the stress procedure adopted.

Structure (SMILES)	IC50 (LPO) [1]	Ulcer incidence % ([2]; 5 mg/kg p.o.)	Ulcer incidence % ([2]; 10 mg/kg p.o.)	Adrenal corticosterone [3]	Plasma corticosterone [3]
O=C1O[C@H]([C@@H](O)CO)C(O)=C1O [Ascorbic acid]	70 µg/mL (≈ 397 µM)	–	–	–	–
CC(=O)Oc1c(C)c(C)c2c(c1C)CCC(C)(CCC[C@H](C)CCC[C@H](C)CCCC(C)C)O2 (stereo partly drawn) [Vitamin E acetate]	56 µg/mL	–	–	–	–
CC/C=C\C/C=C\C/C=C\C/C=C\C/C=C\CCCC(=O)O [EPA, Eicosapentaenoic acid]	–	70%	60%	2.3 ± 0.8 μg/100 mg	22.1 ± 2.9 µg/dL
CC/C=C\C/C=C\C/C=C\C/C=C\C/C=C\C/C=C\CCC(=O)O [DHA, Docosahexaenoic acid]	–	70%	60%	–	–
O=c1oc2cc(O)ccc2c2ccc(O)cc12 [3,8-Dihydroxydibenzo-alpha-pyrone]	30 µg/mL (≈ 131 µM)	–	–	–	–
